Assay results taken from ChEMBL document CHEMBL3885861, “Open TG-GATES”.

Organism: Rattus norvegicus
Assay: Open TG-GATES - Regimen: Daily Repeat
Assay type: toxicity, organism-based, Sprague-Dawley
Set-up: regimen Daily Repeat, gender Male, age 6 weeks
Conditions: in vivo, po, route gavage; for KIDNEY_L / KIDNEY_TOTAL / KIDNEY_R: tissue Kidney; for LIVER: tissue Liver
[1] = 3 mg/kg, 72 h, dose level Middle, time 3 day
[2] = 3 mg/kg, 72 h, tissue Blood, dose level Middle, time 3 day
[3] = 3 mg/kg, 72 h, tissue Plasma, dose level Middle, time 3 day
[4] = 3 mg/kg, […], dose level Middle, time 28 day
[5] = 3 mg/kg, […], tissue Blood, dose level Middle, time 14 day
[6] = 3 mg/kg, […], tissue Blood, dose level Middle, time 28 day
[7] = 3 mg/kg, […], tissue Plasma, dose level Middle, time 14 day
[8] = 3 mg/kg, […], tissue Plasma, dose level Middle, time 28 day
[9] = 10 mg/kg, 72 h, dose level High, time 3 day
[10] = 10 mg/kg, 72 h, tissue Blood, dose level High, time 3 day
[11] = 10 mg/kg, 72 h, tissue Plasma, dose level High, time 3 day
[12] = 10 mg/kg, […], dose level High, time 14 day
[13] = 10 mg/kg, […], dose level High, time 28 day
[14] = 10 mg/kg, […], tissue Blood, dose level High, time 14 day
[15] = 10 mg/kg, […], tissue Blood, dose level High, time 28 day
[16] = 10 mg/kg, […], tissue Plasma, dose level High, time 14 day
[17] = 10 mg/kg, […], tissue Plasma, dose level High, time 28 day

Structure (SMILES): O=C(O)Cc1ccccc1Nc1c(Cl)cccc1Cl [DICLOFENAC]
- TERMINAL_BW [1]: 236.5 g
- Bas [2]: 0%
- Eos [2]: 1%
- Fbg [2]: 214.8 mg/dL
- Lym [2]: 79.8%
- MCH [2]: 21.5 pg
- Plat [2]: 125.2 x10_4/uL
- RBC [2]: 641.4 x10_4/ul
- WBC [2]: 112.9 x10_2/uL
- KIDNEY_L [1]: 1 g
- KIDNEY_TOTAL [1]: 2.1 g
- LIVER [1]: 11.2 g
- ALP [3]: 1064.8 IU/L
- ALT [3]: 39.2 IU/L
- AST [3]: 69.2 IU/L
- CRE [3]: 0.3 mg/dL
- DBIL [3]: 0.1 mg/dL
- GLC [3]: 194.8 mg/dL
- IP [3]: 7.1 mg/dL
- LDH [3]: 186 IU/L
- PL [3]: 170.8 mg/dL
- RALB [3]: 3.4 g/dL
- TBIL [3]: 0.2 mg/dL
- TC [3]: 84.2 mg/dL
- TG [3]: 122 mg/dL
- gamma-GTP [3]: 1.2 IU/L
- TERMINAL_BW (3 mg/kg, […], dose level Middle, time 14 day): 309.6 g
- TERMINAL_BW [4]: 391.3 g
- Bas [5]: 0%
- Eos [5]: 1%
- Fbg [5]: 226 mg/dL
- MCH [5]: 20.8 pg
- MCHC [5]: 35.6%
- MCV [5]: 58.4 fL
- Neu [5]: 14.2%
- Plat [5]: 116.2 x10_4/uL
- RBC [5]: 705.4 x10_4/ul
- Ret [5]: 3.5%
- WBC [5]: 117.1 x10_2/uL
- Bas [6]: 0%
- Eos [6]: 1%
- Fbg [6]: 216.2 mg/dL
- Lym [6]: 83.2%
- MCH [6]: 20 pg
- MCHC [6]: 36.1%
- MCV [6]: 55.4 fL
- Plat [6]: 110.4 x10_4/uL
- RBC [6]: 789.2 x10_4/ul
- Ret [6]: 2.2%
- WBC [6]: 97.8 x10_2/uL
- KIDNEY_L [4]: 1.4 g
- KIDNEY_R [4]: 1.4 g
- KIDNEY_TOTAL [4]: 2.8 g
- LIVER [4]: 15.1 g
- ALP [7]: 835 IU/L
- ALT [7]: 35 IU/L
- AST [7]: 70.8 IU/L
- CRE [7]: 0.4 mg/dL
- GLC [7]: 224.2 mg/dL
- IP [7]: 7.6 mg/dL
- K [7]: 3.5 meq/L
- LDH [7]: 198.8 IU/L
- PL [7]: 151.2 mg/dL
- RALB [7]: 3.3 g/dL
- TBIL [7]: 0.1 mg/dL
- TC [7]: 71.8 mg/dL
- TG [7]: 135.8 mg/dL
- gamma-GTP [7]: 0.8 IU/L
- ALP [8]: 618.6 IU/L
- AST [8]: 61 IU/L
- CRE [8]: 0.5 mg/dL
- Ca [8]: 10.3 mg/dL
- DBIL [8]: 0.086 mg/dL
- GLC [8]: 221.2 mg/dL
- IP [8]: 7.1 mg/dL
- K [8]: 3.6 meq/L
- LDH [8]: 177 IU/L
- Na [8]: 140.8 meq/L
- PL [8]: 130.2 mg/dL
- RALB [8]: 3.4 g/dL
- TBIL [8]: 0.1 mg/dL
- TC [8]: 60 mg/dL
- TP [8]: 6.2 g/dL
- gamma-GTP [8]: 0.6 IU/L
- TERMINAL_BW [9]: 234.4 g
- Bas [10]: 0%
- Eos [10]: 1%
- Fbg [10]: 231.8 mg/dL
- MCH [10]: 22 pg
- MCV [10]: 63.1 fL
- Neu [10]: 22.4%
- Plat [10]: 128.5 x10_4/uL
- RBC [10]: 591.2 x10_4/ul
- Ret [10]: 4.9%
- WBC [10]: 114.7 x10_2/uL
- KIDNEY_L [9]: 1 g
- KIDNEY_R [9]: 1 g
- KIDNEY_TOTAL [9]: 2 g
- LIVER [9]: 11 g
- ALP [11]: 912.8 IU/L
- ALT [11]: 35.6 IU/L
- AST [11]: 65.2 IU/L
- CRE [11]: 0.4 mg/dL
- DBIL [11]: 0.1 mg/dL
- GLC [11]: 186.6 mg/dL
- IP [11]: 7 mg/dL
- LDH [11]: 196.8 IU/L
- Na [11]: 141.6 meq/L
- PL [11]: 156.8 mg/dL
- RALB [11]: 3.3 g/dL
- TBIL [11]: 0.2 mg/dL
- TC [11]: 77.8 mg/dL
- TG [11]: 107.6 mg/dL
- TP [11]: 5.6 g/dL
- gamma-GTP [11]: 0.4 IU/L
- TERMINAL_BW [12]: 295.1 g
- TERMINAL_BW [13]: 341.6 g
- Bas [14]: 0%
- Eos [14]: 1.4%
- Fbg [14]: 278.8 mg/dL
- Lym [14]: 64%
- MCH [14]: 21.5 pg
- MCHC [14]: 34%
- Mono [14]: 4.4%
- Neu [14]: 29%
- Plat [14]: 157.6 x10_4/uL
- RBC [14]: 593.2 x10_4/ul
- Ret [14]: 12%
- WBC [14]: 192.8 x10_2/uL
- Bas [15]: 0%
- Eos [15]: 1%
- Fbg [15]: 282.4 mg/dL
- Lym [15]: 61.6%
- MCH [15]: 20.3 pg
- MCHC [15]: 32.7%
- Neu [15]: 33%
- Plat [15]: 164.9 x10_4/uL
- RBC [15]: 584.4 x10_4/ul
- WBC [15]: 199.6 x10_2/uL
- KIDNEY_L [13]: 1.3 g
- KIDNEY_R [13]: 1.3 g
- KIDNEY_TOTAL [13]: 2.6 g
- LIVER [12]: 13 g
- ALP [16]: 513.4 IU/L
- ALT [16]: 26.4 IU/L
- AST [16]: 60.4 IU/L
- CRE [16]: 0.4 mg/dL
- GLC [16]: 191.8 mg/dL
- IP [16]: 7.6 mg/dL
- K [16]: 3.9 meq/L
- LDH [16]: 213 IU/L
- PL [16]: 162.6 mg/dL
- RALB [16]: 3 g/dL
- TBIL [16]: 0.1 mg/dL
- TC [16]: 78.4 mg/dL
- TG [16]: 132.2 mg/dL
- TP [16]: 5.4 g/dL
- gamma-GTP [16]: 0.8 IU/L
- ALP [17]: 538.6 IU/L
- ALT [17]: 25.6 IU/L
- AST [17]: 55.2 IU/L
- CRE [17]: 0.4 mg/dL
- Cl [17]: 104.8 meq/L
- DBIL [17]: 0.07 mg/dL
- GLC [17]: 191.4 mg/dL
- IP [17]: 7.1 mg/dL
- K [17]: 3.9 meq/L
- LDH [17]: 226 IU/L
- Na [17]: 140.8 meq/L
- PL [17]: 146 mg/dL
- RALB [17]: 2.7 g/dL
- TBIL [17]: 0.1 mg/dL
- TC [17]: 68.2 mg/dL
- TG [17]: 123.2 mg/dL
- TP [17]: 5.3 g/dL
- gamma-GTP [17]: 0.8 IU/L
